Results from patent US11274083B2, “Substituted thiophenyl uracils, salts thereof and the use thereof as herbicidal agents” (Syngenta Crop Protection AG, priority 2017, dated 2022).

How the values were obtained:
Type in all cases: in vivo
Oryza sativa = assay: Crop compatibility post-emergence, greenhouse pot test; conditions: application rate 20 g/ha
Outline: (§1)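 Pot-grown plants in sandy loam, greenhouse, sprayed post-emergence at the one-leaf stage (2–3 weeks after sowing) with WP or EC formulations as aqueous spray plus 0.5% additive at 600 L/ha. Damage scored visually after about 3 weeks versus untreated controls, in % (0% = like control, 100% = dead).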

Zea mays = assay: as above; conditions: application rate 20 g/ha
Outline: as §1

Alopecurus myosuroides [1] = assay: Herbicidal action post-emergence, greenhouse pot test; conditions: application rate 80 g/ha, scored visually after about 3 weeks vs untreated controls
Outline: (§2)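 Test plants, treated at the one-leaf stage 2 to 3 weeks after sowing in sandy loam, received a foliar spray at 80 g/ha or lower. Visual damage was rated about 3 weeks later as percent efficacy versus untreated plants.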

Amaranthus retroflexus [2] = assay: as above
Outline: as §2

Pharbitis purpurea [3] = assay: as above
Outline: as §2

Abutilon theophrasti [4] = assay: as above
Outline: as §2

Veronica persica [5] = assay: as above
Outline: as §2

Viola tricolor [6] = assay: as above
Outline: as §2

Lolium rigidum [7] = assay: as above; conditions: application rate 80 g/ha
Outline: as §2

Matricaria inodora [8] = assay: as above
Outline: as §2

Stellaria media [9] = assay: as above
Outline: as §2

Setaria viridis [10] = assay: as above
Outline: as §2

Polygonum convolvulus [11] = assay: as above; conditions: application rate 80 g/ha
Outline: as §2

Echinochloa crus-galli [12] = assay: as above
Outline: as §2

Matricaria inodora [13] = assay: Herbicidal action pre-emergence, greenhouse pot test; conditions: application rate 320 g/ha
Description: Seeds of mono- and dicotyledonous weeds and crop plants were laid out in plastic or organic plant pots and covered with soil. The compounds of the invention formulated in the form of wettable powders (WP) or as emulsion concentrates (EC) were then applied to the surface of the covering soil as an aqueous suspension or emulsion with addition of 0.5% additive at a water application rate equivalent to 600 L/ha. After the treatment, the pots were placed in a greenhouse and kept under good growth conditions for the test plants. After about 3 weeks, the efficacy of the preparations was scored visually as a percentage by comparison with untreated controls. For example, 100% efficacy=plants have died. 0% efficacy=like control plants. Tables B1 to B17 below show the efficacies of selected compounds of the general formula (I) […] aforementioned trial method.

Alopecurus myosuroides [14] = assay: as above; conditions: application rate 320 g/ha
Outline: (§3)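 Under good greenhouse growth conditions, treated pots are compared visually with untreated ones about three weeks after spraying; the score runs from 0% (like control) to 100% (plants died). Treatment was a WP or EC spray to the soil over sown seeds, at up to 320 g/ha.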

Amaranthus retroflexus [15] = assay: as above
Outline: as §3

Pharbitis purpurea [16] = assay: as above; conditions: application rate 320 g/ha
Outline: as §3

Abutilon theophrasti [17] = assay: as above; conditions: application rate 320 g/ha
Outline: as §3

Veronica persica [18] = assay: as above; conditions: application rate 320 g/ha
Outline: as §3

Viola tricolor [19] = assay: as above; conditions: application rate 320 g/ha
Outline: as §3

Lolium rigidum [20] = assay: as above; conditions: application rate 320 g/ha
Outline: as §3

Stellaria media [21] = assay: as above; conditions: application rate 320 g/ha
Outline: as §3

Setaria viridis [22] = assay: as above; conditions: application rate 320 g/ha
Outline: as §3

Hordeum murinum = assay: as above; conditions: application rate 320 g/ha
Outline: as §3

Polygonum convolvulus [23] = assay: as above; conditions: application rate 320 g/ha
Outline: as §3

Avena fatua [24] = assay: as above; conditions: application rate 320 g/ha
Outline: as §3

Echinochloa crus-galli [25] = assay: as above; conditions: application rate 320 g/ha
Outline: as §3

Cyperus esculentus = assay: as above; conditions: application rate 320 g/ha
Outline: as §3

Triticum aestivum = assay: Crop compatibility post-emergence, greenhouse pot test; conditions: application rate 20 g/ha
Outline: as §1

Avena fatua [26] = assay: Herbicidal action post-emergence, greenhouse pot test; conditions: application rate 80 g/ha
Outline: as §2

Oryza sativa (Efficacy in %) (Oryza sativa) [%]	Zea mays (Efficacy in %) (Zea mays) [%]	Structure (SMILES)	Alopecurus myosuroides (Efficacy in %) (Alopecurus myosuroides [1]) [%]	Amaranthus retroflexus (Efficacy in %) (Amaranthus retroflexus [2]; application rate 80 g/ha) [%]	Pharbitis purpurea (Efficacy in %) (Pharbitis purpurea [3]; application rate 80 g/ha) [%]	Abutilon theophrasti (Efficacy in %) (Abutilon theophrasti [4]; application rate 80 g/ha) [%]	Veronica persica (Efficacy in %) (Veronica persica [5]; application rate 20 g/ha) [%]	Lolium rigidum (Efficacy in %) (Lolium rigidum [7]) [%]	Matricaria inodora (Efficacy in %) (Matricaria inodora [8]; application rate 80 g/ha) [%]	Stellaria media (Efficacy in %) (Stellaria media [9]; application rate 20 g/ha) [%]	Polygonum convolvulus (Efficacy in %) (Polygonum convolvulus [11]) [%]	Matricaria inodora (Efficacy in %) (Matricaria inodora [13]) [%]	Pharbitis purpurea (Efficacy in %) (Pharbitis purpurea [16]) [%]	Abutilon theophrasti (Efficacy in %) (Abutilon theophrasti [17]) [%]	Veronica persica (Efficacy in %) (Veronica persica [18]) [%]	Setaria viridis (Efficacy in %) (Setaria viridis [22]) [%]	Hordeum murinum (Efficacy in %) (Hordeum murinum) [%]	Polygonum convolvulus (Efficacy in %) (Polygonum convolvulus [23]) [%]	Echinochloa crus-galli (Efficacy in %) (Echinochloa crus-galli [25]) [%]	Cyperus esculentus (Efficacy in %) (Cyperus esculentus) [%]	other results
20	10	CCNC(=O)COC(=O)C(C)Sc1cc(-n2c(=O)cc(C(F)(F)F)n(C)c2=O)c(F)cc1Cl (centres unmarked) [I.1-183]	80	100	100	100	100	100	100	100	100	100	100	100	100	100	90	100	100	80	Viola tricolor (Efficacy in %) (Viola tricolor [6]; application rate 20 g/ha): 100%; Setaria viridis (Efficacy in %) (Setaria viridis [10]; application rate 80 g/ha): 100%; Echinochloa crus-galli (Efficacy in %) (Echinochloa crus-galli [12]; application rate 80 g/ha): 100%; Alopecurus myosuroides (Efficacy in %) (Alopecurus myosuroides [14]): 90%; Amaranthus retroflexus (Efficacy in %) (Amaranthus retroflexus [15]; application rate 80 g/ha): 100%; Viola tricolor (Efficacy in %) (Viola tricolor [19]): 100%; Lolium rigidum (Efficacy in %) (Lolium rigidum [20]): 90%; Stellaria media (Efficacy in %) (Stellaria media [21]): 100%; Avena fatua (Efficacy in %) (Avena fatua [24]): 90%
20	10	CC(Sc1cc(-n2c(=O)cc(C(F)(F)F)n(C)c2=O)c(F)cc1Cl)C(=O)OC1CCNC1=O (centres unmarked) [I.1-251]	100	100	100	100		100	100		100	100	100	100	100	100	90	100	100	80	Triticum aestivum (Efficacy in %) (Triticum aestivum): 10%; Veronica persica (Efficacy in %) (Veronica persica [5]; application rate 80 g/ha): 100%; Viola tricolor (Efficacy in %) (Viola tricolor [6]; application rate 80 g/ha): 100%; Stellaria media (Efficacy in %) (Stellaria media [9]; application rate 80 g/ha): 100%; Setaria viridis (Efficacy in %) (Setaria viridis [10]; application rate 20 g/ha): 100%; Avena fatua (Efficacy in %) (Avena fatua [26]): 80%; Echinochloa crus-galli (Efficacy in %) (Echinochloa crus-galli [12]; application rate 80 g/ha): 100%; Alopecurus myosuroides (Efficacy in %) (Alopecurus myosuroides [14]): 100%; Amaranthus retroflexus (Efficacy in %) (Amaranthus retroflexus [15]; application rate 80 g/ha): 100%; Viola tricolor (Efficacy in %) (Viola tricolor [19]): 100%; Avena fatua (Efficacy in %) (Avena fatua [24]): 90%
		COC(=O)CC(CC(=O)OC)OC(=O)CSc1cc(-n2c(=O)cc(C(F)(F)F)n(C)c2=O)c(F)cc1Cl [I.8-127]	80				100	90		100	100	100	100	100	100	100	90	100	100	90	Amaranthus retroflexus (Efficacy in %) (Amaranthus retroflexus [2]; application rate 20 g/ha): 100%; Pharbitis purpurea (Efficacy in %) (Pharbitis purpurea [3]; application rate 20 g/ha): 100%; Abutilon theophrasti (Efficacy in %) (Abutilon theophrasti [4]; application rate 20 g/ha): 100%; Viola tricolor (Efficacy in %) (Viola tricolor [6]; application rate 80 g/ha): 100%; Matricaria inodora (Efficacy in %) (Matricaria inodora [8]; application rate 20 g/ha): 100%; Setaria viridis (Efficacy in %) (Setaria viridis [10]; application rate 20 g/ha): 100%; Avena fatua (Efficacy in %) (Avena fatua [26]): 80%; Echinochloa crus-galli (Efficacy in %) (Echinochloa crus-galli [12]; application rate 20 g/ha): 100%; Amaranthus retroflexus (Efficacy in %) (Amaranthus retroflexus [15]; application rate 20 g/ha): 100%; Lolium rigidum (Efficacy in %) (Lolium rigidum [20]): 90%; Stellaria media (Efficacy in %) (Stellaria media [21]): 100%
